Twelve molecules from ChEMBL document CHEMBL1201862, “PubChem BioAssay data set” (2004) can be followed below.

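Exposure lasted 48 hours, with cells grown in 96-well plates and compounds tested at five concentrations. At the GI50, growth is halved.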 Calls of active or inactive are those of the source. Rule as the data show it: active = GI50 up to about 1.1 µM and inactive = higher.

Some test systems named below: ACHN; CAKI-1; CCRF-CEM; EKVX; HOP-62; KM12; LXFL 529; M14; MOLT-4; SF-539; SK-MEL-2; SK-MEL-5; SN12C; IGROV-1; SF-295; SK-OV-3; MCF7; NCI/ADR-RES; RXF 393; T47D.
Test in all cases: inhibition of tumour cell growth, NCI panel, 48 h

In the case of `CC(C)OP(=O)(OC(C)C)/C(Cl)=N/Nc1ccc([N+](=O)[O-])cc1`, the GI50 in the experiment on ACHN is > 100 µM (inactive); in the experiment with CAKI-1, 97.3 µM (inactive); with CCRF-CEM, 59 µM (inactive); with EKVX, > 100 µM (inactive); in the experiment with HOP-62, > 100 µM (inactive); with KM12, > 100 µM (inactive). Further, the GI50 was 34.7 µM (inactive) in the experiment on LXFL 529; > 100 µM (inactive) in the experiment on M14; 53.6 µM (inactive) in the experiment on MOLT-4; > 100 µM (inactive) in the experiment with SF-539; > 100 µM (inactive) in the experiment with SK-MEL-2; > 100 µM (inactive) in the experiment on SK-MEL-5. The GI50 in the experiment with SN12C was > 100 µM (inactive).

Regarding `COc1cc(O)c2c(c1)O[C@@H]1OCC[C@H]21`, the GI50 with ACHN, in the experiment with CCRF-CEM, in the experiment on EKVX, with HOP-62, in the experiment on IGROV-1 and with KM12 was > 100 µM (inactive) each time. In addition, the GI50 in the experiment with LXFL 529, with M14, in the experiment with MOLT-4, in the experiment with SF-295, in the experiment with SF-539 and with SK-MEL-2 was > 100 µM (inactive) in each case. For the same molecule, the GI50 in the experiment on SK-MEL-5, in the experiment with SK-OV-3 and in the experiment on SN12C was > 100 µM (inactive) each time.

Take `c1c[nH]c(Cc2nc(Cc3c[nH]cn3)c[nH]2)n1`: the GI50 in the experiment on ACHN is 3.51 µM (inactive); with CAKI-1, 27.9 µM (inactive); in the experiment with CCRF-CEM, 5.06 µM (inactive); with EKVX, 4.49 µM (inactive); with HOP-62, 17.5 µM (inactive); with IGROV-1, 16.5 µM (inactive). The GI50 in the experiment on KM12 is 7.64 µM (inactive); with LXFL 529, 6.7 µM (inactive); in the experiment on M14 it was 10.5 µM (inactive); with MOLT-4, 3.48 µM (inactive); in the experiment on SF-295, 35.6 µM (inactive); in the experiment with SF-539, 27.2 µM (inactive). For the same molecule, the GI50 in the experiment on SK-MEL-2 was 13.7 µM (inactive); with SK-MEL-5, 20.7 µM (inactive); in the experiment with SK-OV-3, 9.29 µM (inactive); with SN12C, 29.6 µM (inactive).

On to `Clc1cc2nc[nH]c2cc1Cl`, for which the GI50 in the experiment with ACHN is > 100 µM (inactive); with CAKI-1 it was > 100 µM (inactive); in the experiment on CCRF-CEM, > 100 µM (inactive); in the experiment with EKVX, > 100 µM (inactive); with HOP-62 it was 93.8 µM (inactive); in the experiment with IGROV-1, > 100 µM (inactive). The GI50 was 71.8 µM (inactive) in the experiment with KM12; > 100 µM (inactive) in the experiment on LXFL 529; > 100 µM (inactive) in the experiment with M14; > 100 µM (inactive) with MOLT-4; > 100 µM (inactive) in the experiment with SF-295; > 100 µM (inactive) in the experiment with SF-539. Moreover, the GI50 in the experiment on SK-MEL-2, with SK-OV-3 and in the experiment on SN12C was > 100 µM (inactive) each time.

With `O=C1CCNC/C1=C\c1ccccc1`, the GI50 was 22.9 µM (inactive) in the experiment with ACHN; 44.8 µM (inactive) in the experiment with CAKI-1; > 100 µM (inactive) in the experiment with EKVX; 29.1 µM (inactive) with HOP-62; 29.9 µM (inactive) with IGROV-1; 14.8 µM (inactive) in the experiment with KM12. Also, the GI50 in the experiment with LXFL 529 was 16.1 µM (inactive); with M14, 14 µM (inactive); with MOLT-4, 24.7 µM (inactive); in the experiment with SF-295, 26.9 µM (inactive); with SF-539 it was 17.4 µM (inactive); with SK-MEL-2, 54 µM (inactive). In addition, the GI50 was 20.3 µM (inactive) in the experiment with SK-MEL-5, 55 µM (inactive) in the experiment on SK-OV-3 and 34.5 µM (inactive) with SN12C.

Turning to `CCOC(=O)NC(=O)c1cn(C2CCCCC2)c(=O)[nH]c1=O`, the GI50 in the experiment with ACHN is 35.6 µM (inactive); in the experiment with CAKI-1 it was > 100 µM (inactive); with CCRF-CEM, 33.3 µM (inactive); in the experiment with EKVX, > 100 µM (inactive); with HOP-62, 38 µM (inactive); in the experiment with IGROV-1, 54.8 µM (inactive). Also, the GI50 in the experiment on KM12 was 78.2 µM (inactive); in the experiment on LXFL 529, 39.7 µM (inactive); in the experiment with M14, 55.1 µM (inactive); in the experiment on MOLT-4 it was 41.8 µM (inactive); in the experiment with SF-295 it was 94 µM (inactive); in the experiment with SF-539, 39.7 µM (inactive). Further, the GI50 with SK-MEL-2 was > 100 µM (inactive); in the experiment with SK-OV-3, 77.3 µM (inactive); in the experiment on SN12C, > 100 µM (inactive).

As for `CC(C)(C)c1cc(C(C)(C)C)c(SC2OC(CO)C(O)C(O)C2O)c(O)c1O` (stereo not drawn), the GI50 with ACHN is 6.53 µM (inactive); with CAKI-1, 17.9 µM (inactive); in the experiment with CCRF-CEM it was 5.27 µM (inactive); in the experiment with EKVX it was 10.8 µM (inactive); in the experiment on HOP-62 it was 13.2 µM (inactive); in the experiment with IGROV-1, 9.64 µM (inactive). In addition, the GI50 was 6.87 µM (inactive) in the experiment with KM12; 18.3 µM (inactive) in the experiment on M14; 5.4 µM (inactive) with MCF7; 9.1 µM (inactive) in the experiment with MOLT-4; 10.3 µM (inactive) with NCI/ADR-RES; 0.36 µM (active) with RXF 393. For the same molecule, the GI50 is 8.39 µM (inactive) in the experiment on SF-295; 3.48 µM (inactive) with SF-539; 11.1 µM (inactive) with SK-MEL-2; 5.57 µM (inactive) with SK-MEL-5; 15.2 µM (inactive) in the experiment on SK-OV-3; 10.8 µM (inactive) in the experiment with SN12C. In addition, the GI50 in the experiment with T47D is 17.6 µM (inactive).

On to `Nc1nc(Nc2ccccc2)sc1C(=O)c1cccs1`, for which the GI50 in the experiment with ACHN is 16.8 µM (inactive); in the experiment with CAKI-1 it was 14.4 µM (inactive); in the experiment on CCRF-CEM, 2.81 µM (inactive); in the experiment with EKVX, 13.6 µM (inactive); in the experiment with HOP-62 it was 22.3 µM (inactive); in the experiment on IGROV-1, 11.7 µM (inactive). Also, the GI50 with KM12 was 4.19 µM (inactive); in the experiment with M14 it was 21.1 µM (inactive); in the experiment on MCF7 it was 8.13 µM (inactive); with MOLT-4, 6.75 µM (inactive); in the experiment on NCI/ADR-RES it was 21.2 µM (inactive); in the experiment on RXF 393, 5.93 µM (inactive). The GI50 with SF-295 was 21.8 µM (inactive); in the experiment on SF-539 it was 10.7 µM (inactive); with SK-MEL-2 it was 12.7 µM (inactive); in the experiment on SK-MEL-5 it was 4.08 µM (inactive); with SK-OV-3 it was 29.4 µM (inactive); in the experiment with SN12C, 16 µM (inactive). For the same molecule, the GI50 with T47D is 21.2 µM (inactive).

Consider `Oc1cccc2cc(Br)cnc12`, for which the GI50 with ACHN was 6.03 µM (inactive); in the experiment with CAKI-1 it was 24.5 µM (inactive); in the experiment on CCRF-CEM it was 2.37 µM (inactive); in the experiment with EKVX it was 5.14 µM (inactive); in the experiment with HOP-62 it was 16.2 µM (inactive); in the experiment with IGROV-1, 5.09 µM (inactive). The GI50 in the experiment with KM12 is 7.5 µM (inactive); in the experiment with M14, 9.14 µM (inactive); in the experiment on MCF7, 3.18 µM (inactive); in the experiment with MOLT-4, 3.29 µM (inactive); with NCI/ADR-RES it was 3.68 µM (inactive); in the experiment with RXF 393, 16.7 µM (inactive). Moreover, the GI50 in the experiment on SF-295 was 6.15 µM (inactive); with SF-539, 10 µM (inactive); in the experiment on SK-MEL-2, 24.5 µM (inactive); in the experiment with SK-MEL-5, 6.5 µM (inactive); with SK-OV-3 it was 41.1 µM (inactive); with SN12C it was 14.9 µM (inactive). Further, the GI50 in the experiment with T47D is 4.3 µM (inactive).

On to `CCCCn1c2c(n(CCCC)c1=S)-c1c(n(CCCC)c(=S)n1CCCC)SSSS2`, for which the GI50 in the experiment with ACHN was 0.966 µM (active); in the experiment on CAKI-1, 0.543 µM (active); in the experiment on CCRF-CEM, 0.0957 µM (active); in the experiment on EKVX, 1.31 µM (inactive); in the experiment on HOP-62, 6.28 µM (inactive); with IGROV-1, 0.7 µM (active). The GI50 in the experiment on KM12 was 8.93 µM (inactive); with M14 it was 3.92 µM (inactive); in the experiment with MCF7, 2.68 µM (inactive); with MOLT-4 it was 0.454 µM (active); in the experiment with NCI/ADR-RES, 15 µM (inactive); with RXF 393, 2.7 µM (inactive). Moreover, the GI50 with SF-295 is 13.3 µM (inactive); with SF-539, 0.783 µM (active); in the experiment on SK-MEL-2, 2.09 µM (inactive); in the experiment with SK-MEL-5 it was 2.09 µM (inactive); in the experiment on SK-OV-3, 46.1 µM (inactive); with SN12C, 3.1 µM (inactive). For the same molecule, the GI50 in the experiment with T47D is 0.18 µM (active).

With `O=c1c(Cc2cccc(Cc3c(O)oc4ccccc4c3=O)c2)c(O)oc2ccccc12`, the GI50 in the experiment on ACHN, in the experiment with CAKI-1, in the experiment with CCRF-CEM, in the experiment with EKVX, in the experiment with HOP-62 and in the experiment on IGROV-1 was > 100 µM (inactive) each time. In addition, the GI50 with KM12 is > 100 µM (inactive); with M14 it was > 100 µM (inactive); in the experiment with MCF7, 62.4 µM (inactive); in the experiment on MOLT-4, > 100 µM (inactive); in the experiment on NCI/ADR-RES, > 100 µM (inactive); in the experiment on RXF 393, > 100 µM (inactive). Also, the GI50 with SF-295, in the experiment on SF-539, in the experiment with SK-MEL-2, with SK-MEL-5, in the experiment on SK-OV-3 and with SN12C was > 100 µM (inactive) in each case. In the experiment on T47D, the GI50 is > 100 µM (inactive).

`CC1(C)CCOC(=O)C(Cl)CC1Cl` (stereo not drawn): the GI50 in the experiment on ACHN, in the experiment on CAKI-1, with CCRF-CEM, with EKVX, with HOP-62 and in the experiment on IGROV-1 was > 100 µM (inactive) each time. The GI50 in the experiment on KM12, in the experiment on M14, in the experiment with MCF7, in the experiment with MOLT-4, in the experiment with NCI/ADR-RES and in the experiment on RXF 393 was > 100 µM (inactive) each time. In addition, the GI50 in the experiment with SF-295, with SF-539, with SK-MEL-2, in the experiment on SK-MEL-5, with SK-OV-3 and with SN12C was > 100 µM (inactive) in each case. The GI50 in the experiment on T47D was > 100 µM (inactive).
